Biological target: Human CD38 (Homo sapiens (Human), UniProt P28907)
Test: CD38 enzyme assay
Format: biochemical
Conditions: 2 nM CD38, NAD+ substrate, absorbance at 405 nm
Outline: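 IC50 values come from fitting % inhibition against compound concentration with a 4-parameter logistic, or a 3-parameter fit with top/bottom fixed at 100/0 or Hill at 1. Inhibition is scaled between DMSO wells and positive-control wells treated with a quinolinone CD38 inhibitor.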

Chain of Human CD38 (P28907 whole entry): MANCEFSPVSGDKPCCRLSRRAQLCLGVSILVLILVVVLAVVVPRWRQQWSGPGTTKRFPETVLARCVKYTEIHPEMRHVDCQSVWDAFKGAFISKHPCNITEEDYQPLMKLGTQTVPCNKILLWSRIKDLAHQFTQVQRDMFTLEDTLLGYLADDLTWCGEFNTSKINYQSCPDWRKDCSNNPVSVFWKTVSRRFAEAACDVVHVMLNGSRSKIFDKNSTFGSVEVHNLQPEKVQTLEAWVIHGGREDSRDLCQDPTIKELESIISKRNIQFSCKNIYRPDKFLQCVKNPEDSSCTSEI

IC50 | Structure (SMILES)
0.1 to 1 µM | O=C(N[C@H]1CC[C@@H](NCCC(F)(F)F)CC1)c1nc(-n2ccnc2)cc2cn[nH]c12 [Example 188, 5-(1H-imidazol-1-yl)-N-((1s,4s)-4-((3,3,3-trifluoropropyl)amino)cyclohexyl)-1H-pyrazolo[3,4-c]pyridine-7-carboxamide]
0.01 to 0.1 µM | O=C(N[C@H]1CC[C@H](NCCC(F)(F)F)CC1)c1nc(-n2ccnc2)cc2cn[nH]c12 [Example 189, 5-(1H-imidazol-1-yl)-N-((1r,4r)-4-((3,3,3-trifluoropropyl)amino)cyclohexyl)-1H-pyrazolo[3,4-c]pyridine-7-carboxamide]
< 0.01 µM | CN(C)CC#Cc1ccc(NC(=O)c2nc(-n3ccnc3)nc3cc[nH]c23)cn1 [Example 190, N-(6-(3-(dimethylamino)prop-1-yn-1-yl)pyridin-3-yl)-2-(1H-imidazol-1-yl)-5H-pyrrolo[3,2-d]pyrimidine-4-carboxamide]
0.01 to 0.1 µM | O=C(N[C@H]1CC[C@H](NCC(F)(F)F)CC1)c1nc(-n2ccnc2)nc2cn[nH]c12 [Example 191, 5-(1H-imidazol-1-yl)-N-((1r,4r)-4-((2,2,2-trifluoroethyl)amino)cyclohexyl)-1H-pyrazolo[4,3-d]pyrimidine-7-carboxamide]
0.01 to 0.1 µM | O=C(N[C@H]1CC[C@H](NCC(F)F)CC1)c1nc(-n2ccnc2)cc2cn[nH]c12 [Example 195, N-((1r,4r)-4-((2,2-difluoroethyl)amino)cyclohexyl)-5-(1H-imidazol-1-yl)-1H-pyrazolo[3,4-c]pyridine-7-carboxamide]
0.01 to 0.1 µM | COCCO[C@H]1CC[C@H](NC(=O)c2nc(-n3ccnc3)cc3ccsc23)CC1 [Example 198, 5-(1H-imidazol-1-yl)-N-((1r,4r)-4-(2-methoxyethoxy)cyclohexyl)thieno[2,3-c]pyridine-7-carboxamide]
0.01 to 0.1 µM | CNC(=O)C[C@H]1CC[C@H](NC(=O)c2nc(-n3ccnc3)cc3cn[nH]c23)CC1 [Example 199, 5-(1H-imidazol-1-yl)-N-((1r,4r)-4-(2-(methylamino)-2-oxoethyl)cyclohexyl)-1H-pyrazolo[3,4-c]pyridine-7-carboxamide]

Structure (SMILES) | IC50
C[C@H](O)[C@H]1CC[C@H](NC(=O)c2nc(-n3ccnc3)cc3cn[nH]c23)CC1 [Example 192a, N-((1S,4r)-4-((S)-1-hydroxyethyl)cyclohexyl)-5-(1H-imidazol-1-yl)-1H-pyrazolo[3,4-c]pyridine-7-carboxamide] | < 0.01 µM
C[C@@H](O)[C@H]1CC[C@H](NC(=O)c2nc(-n3ccnc3)cc3cn[nH]c23)CC1 [Example 192b, N-((1R,4r)-4-((R)-1-hydroxyethyl)cyclohexyl)-5-(1H-imidazol-1-yl)-1H-pyrazolo[3,4-c]pyridine-7-carboxamide] | < 0.01 µM
CC(F)(F)CN[C@H]1CC[C@H](NC(=O)c2nc(-n3ccnc3)cc3cn[nH]c23)CC1 [Example 193, N-((1r,4r)-4-((2,2-difluoropropyl)amino)cyclohexyl)-5-(1H-imidazol-1-yl)-1H-pyrazolo[3,4-c]pyridine-7-carboxamide] | 0.01 to 0.1 µM
CC(F)(F)CN[C@H]1CC[C@@H](NC(=O)c2nc(-n3ccnc3)cc3cn[nH]c23)CC1 [Example 194, N-((1s,4s)-4-((2,2-difluoropropyl)amino)cyclohexyl)-5-(1H-imidazol-1-yl)-1H-pyrazolo[3,4-c]pyridine-7-carboxamide] | 0.1 to 1 µM
COCCO[C@H]1CC[C@H](NC(=O)c2nc(-n3ccnc3)cc3cn(C)nc23)CC1 [Example 196, 5-(1H-imidazol-1-yl)-N-((1r,4r)-4-(2-methoxyethoxy)cyclohexyl)-2-methyl-2H-pyrazolo[3,4-c]pyridine-7-carboxamide] | 0.01 to 0.1 µM
COCCO[C@H]1CC[C@H](NC(=O)c2nc(-n3ccnc3)cc3cnn(C)c23)CC1 [Example 197, 5-(1H-imidazol-1-yl)-N-((1r,4r)-4-(2-methoxyethoxy)cyclohexyl)-1-methyl-1H-pyrazolo[3,4-c]pyridine-7-carboxamide] | 0.01 to 0.1 µM

From patent publication US11535621B2, “Heterobicyclic amides as inhibitors of CD38” (Ribon Therapeutics, Inc., priority 2019, dated 2022)
